Experimental data published in patent US10500198B2, “Bis-benzylidine piperidone proteasome inhibitor with anticancer activity” (The Johns Hopkins University, priority 2013, dated 2019).
pIC50: −log10 of the molar value.

Tests used:
[1] = Complete blood counts and blood chemistry of C57BL/6 mice carrying TC-1 tumor; settings: C57BL/6 mice with TC-1 tumor; nine doses every third day: RA190 40 mg/kg p.o., Bortezomib 1.5 mg/kg i.p.; mean ± SD, n = 3;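 note: blood drawn from the heart after euthanasia, cell counts read on an automated hemocytometer, heparinized plasma analyzed on an automated clinical chemistry analyzer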
RPMI8226 = test: Cell viability after 48-hr treatment (Table 1); format: cell-based; settings: Homo sapiens, RPMI-8226, XTT assay
Experimental: (§1) Cells seeded at the concentration of 1,000 cells/well for HeLa, 5,000 cells/well for ES2 and HCT116 and 10,000-20,000 cells/well for other cell lines in 100 μL medium in 96-well plate were treated with RA series compounds at specified concentrations. […]

SiHa = test: Cell viability after 48-hr treatment (Table 1); format: cell-based; settings: Homo sapiens, SiHa; 48-hr treatment; XTT assay; read-out: IC50, SiHa
Experimental: as §1

HaCaT = test: Cell viability after 48-hr treatment (Table 1); format: cell-based; settings: Homo sapiens, HaCaT; 48-hr treatment; XTT assay; read-out: IC50, HaCaT
Experimental: as §1

HT3 = test: Cell viability after 48-hr treatment (Table 1); format: cell-based; settings: Homo sapiens, HT-3; 48-hr treatment; XTT assay; read-out: IC50, HT3
Experimental: as §1

HOK-16B = test: Cell viability after 48-hr treatment (Table 1); format: cell-based; settings: 48-hr treatment; XTT assay; read-out: IC50, HOK-16B
Experimental: (§2) Cell viability was assayed using CellTiter 960 AQueous One Solution Reagent (Promega, Madison, Wis.). Cells seeded at the concentration of 1,000 cells/well for HeLa, 5,000 cells/well for ES2 and HCT116 and 10,000-20,000 cells/well for other cell lines in 100 μL medium in 96-well plate were treated with RA series compounds at specified concentrations. After the indicated periods, cells were incubated according to the manufacturer's protocol with the MTS labeling mixture for 1-2 hr and absorbance at 490 nm measured using a Benchmark Plus microplate spectrophotometer (BIO-RAD).

CasKi = test: Cell viability after 48-hr treatment (Table 1); format: cell-based; settings: Homo sapiens, Ca-Ski; 48-hr treatment; XTT assay; read-out: IC50, CasKi
Experimental: as §2

HeLa = test: Cell viability after 48-hr treatment (Table 1); format: cell-based, human; settings: Homo sapiens, HeLa; 48-hr treatment; XTT assay; read-out: IC50, HeLa
Experimental: as §1, with “Cell viability was assayed using CellTiter 960 AQueous One Solution Reagent (Promega, Madison, Wis.). Cells” for “Cells”

OVCAR3 = test: Cell viability after 48-hr treatment (Table 1); format: cell-based, human; settings: Homo sapiens, OVCAR-3, XTT assay
Experimental: as §1, with “Cell viability was assayed using CellTiter 960 AQueous One Solution Reagent (Promega, Madison, Wis.). Cells” for “Cells”

MM and HeLa cells = test: Annexin-V flow cytometry; format: cell-based; settings: 12 hr after treating
Experimental: Activation of ICE family members such as caspase-3 and -7 results in cleavage of poly ADP ribose polymerase (PARP) to 85 kDa and 25 kDa fragments and drives apoptosis.
Induction of apoptosis was determined using Annexin V-PE Apoptosis Detection Kit I (BD Pharmingen, San Diego, Calif.) according to the manufacturer's protocol.

HeLa cells [2] = test: Drug combination index assay; format: cell-based, human; settings: Homo sapiens, 48 hr, read-out: IC50 (single agent, Compusyn)
Experimental: The combination indices and a normalized isobologram were calculated using Compusyn software (www.combosyn.com).

HeLa cells [3] = test: Cell surface HSP90 staining; format: cell-based, human; settings: 24 hr
From the text: Cell surface HSP90 was detected by staining with purified anti-HSP90 mAb (Stressgen), followed by PE-conjugated anti-mouse IgG1. The data were acquired with a FACSCalibur and analyzed using CellQuest software.

purified 20S proteasomes = purified 20S proteasomes (Homo sapiens, UniProt P28072+P28074+Q99436); test: 20S proteolytic activity assay; format: biochemical; settings: 1 μM, 30 min
Experimental: Actin was used as a loading control. […] In FIG. 9C-E, purified 20S proteasomes were treated for 30 min with or without compounds (1 μM) prior to the addition of the specific fluorogenic substrate for chymotryptic (9C), tryptic (9D) or PGPH (9E) hydrolytic proteasome capacities. […] DMSO was added to all samples to a final concentration of 0.1% (upper panel). The effect of DMSO is highlighted by including ubiquitin—AMC (0.5 μM) hydrolysis with 2 nM UCH37 lacking DMSO (orange, bottom panel). In FIG. 9H, purified 19S RP (500 nM) in buffer was treated with corresponding compounds 30 min at 37° C. and AMC cleavage was measured with a fluorometer for 20 min. Ubal was used as a positive control.
Release of free AMC by the enzyme reaction was determined by measuring its fluorescence at 380 nm (excitation) and 440 nm (emission). The graphs shown are representative of at least three independent determinations and each data point is the mean of ±SD of triplicate determinations.
20S proteasome cleaves the chymotryptic substrate and releases fluorescent AMC.

C33A = test: Cell viability after 48-hr treatment (Table 1); format: cell-based; settings: Homo sapiens, C-33-A; 48-hr treatment; XTT assay; read-out: IC50, C33A
Experimental: as §1, with “Cell viability was assayed using CellTiter 960 AQueous One Solution Reagent (Promega, Madison, Wis.). Cells” for “Cells”

FaDu = test: Cell viability after 48-hr treatment (Table 1); format: cell-based; settings: Homo sapiens, FaDu; 48-hr treatment; XTT assay; read-out: IC50, FaDu
Experimental: as §1, with “Cell viability was assayed using CellTiter 960 AQueous One Solution Reagent (Promega, Madison, Wis.). Cells” for “Cells”

SKOV3 = test: Cell viability after 48-hr treatment (Table 1); format: cell-based; settings: Homo sapiens, SK-OV-3; 48-hr treatment; XTT assay; read-out: IC50, SKOV3
Experimental: as §1, with “Cell viability was assayed using CellTiter 960 AQueous One Solution Reagent (Promega, Madison, Wis.). Cells” for “Cells”

MM.1S = test: Cell viability after 48-hr treatment (Table 1); format: cell-based; settings: Homo sapiens, MM1.S, XTT assay
Experimental: as §1, with “Cell viability was assayed using CellTiter 960 AQueous One Solution Reagent (Promega, Madison, Wis.). Cells” for “Cells”

4UbFL reporter = test: Proteasome inhibition in vivo (4UbFL reporter bioluminescence); settings: i.m. electroporated 4UbFL; RA190 40 mg/kg i.p., bortezomib 1.5 mg/kg i.p.
Experimental: After the indicated time points of treatment, bioluminescence was measured by injection of luciferin and imaging with an IVIS 200 (fold change±SD, *p<0.05, **p<0.01).
Two hours after gene gun delivery of the plasmid or one day post electroporation, mice were injected i.p. with 100 uL of luciferin (3 mg/mL) and anesthetized with isoflurane and optical imaging was performed for basal level luciferase expression. Images were acquired for 10 min with a Xenogen IVIS 200 (Caliper, Hopkinton, Mass.). Equally sized areas were analyzed using Living Image 2.20 software.

NCl-H929 = test: Cell viability after 48-hr treatment (Table 1); format: cell-based, human; settings: Homo sapiens, XTT assay
Experimental: as §1

ES-2 = test: Cell viability after 48-hr treatment (Table 1); format: cell-based, human; settings: Homo sapiens, ES-2, XTT assay
Experimental: as §1

NCI-H929 cells = test: Active caspase-3 by FACS; format: cell-based, human; settings: 0.5 μM, 8 h
Experimental: NCI-H929 cells were treated with RA195 (0.5 μM) and Bz(0.5 μM) for the period of 8 h. Cells were stained for PE-conjugated Caspase-3 antibody and measured active caspase-3 by FACS.

[4] = system: TNFα-induced NFκB activation in 293 cells; test: NFκB/FL reporter assay; format: cell-based; settings: TNFα 10 ng/ml, 7 h
Experimental: 293 cells transiently transfected with either NFκB/FL (firefly luciferase reporter construct under control of an NFκB-driven promoter) or control CMV promoter-driven FL reporter construct were treated with compounds and TNFα (10 ng/ml) for 7 h. Upon the addition of luciferin, bioluminescence was measured in cell lysates using a luminometer. Results can be seen in FIG. 20.
293 cells transiently transfected with either NFκB/FL or control FL reporter genes were treated with compounds and TNFα (10 ng/ml) for 7 h. Upon the addition of luciferin, bioluminescence was measured in cell lysates using a luminometer.

U266 cells = test: Active caspase-3 by FACS; format: cell-based; settings: 0.5 μM, 8 h
Experimental: U266 cells were treated with RA195 (0.5 μM) and Bz(0.5 μM) for the period of 8 h. Cells were stained for PE-conjugated Caspase-3 antibody and measured active caspase-3 by FACS.

[5] = system: tetraubiquitin-firefly luciferase (4UbFL) reporter in HeLa cells; test: Cell culture assay for luciferase (4UbFL reporter); format: cell-based, human; settings: 4 hr treatment
Experimental: Sub-confluent cultures of HeLa cells were transfected with 4UbFL or FL plasmids using Lipofectamine 2000 reagent (Life Technologies, Carlsbad, Calif.). […] Luciferase activity in cell lysate was determined with a luciferase assay kit (Promega, Madison, Wis.) according to the manufacturer's instructions. Bioluminescence was measured by using a Glomax Multidetection system (Promega, Madison, Wis., USA).
HeLa cells were transiently transfected with tetra ubiquitin-fused firefly luciferase (4UB-FL) plasmid. After 48 h, the transfected cells were treated with titrations of the indicated compounds for 4 h, and luciferase activity was measured. Data is expressed as a 4UB-FL fold change compared to untreated cells.

cancer cells = test: Antiproliferative activity against cancer cells (design rationale); format: cell-based
From the text: We used Chloro and Nitro functional groups as substituent's on the aromatic ring due to their greater electron withdrawing effect at ortho (or) para (or) meta (or) both positions along with different amino acid linkages on bis-benzylidine piperidone moiety. Amino acids were chosen based in their physical characteristics like very hydrophobic (phenylalanine), strongly basic and hydrophilic (lysine), basic and hydrophilic (histidine) and amphiphilic (glycine). Commercially available Fmoc and Boc protected amino acids were used in the synthesis, and they were evaluated for their antiproliferatory activity against cancer cells.
Next we synthesized another set of compounds by converting free amine functionality to its Acetate (Ac), Acrolyl (Acr) and Benzoyl […] analogs as these units are part of many anticancer drugs because of their smaller size and feasibility to form inter molecular hydrogen bonds with proteins.
In the RA195 molecule two amino functionalities of lysine can provide more flexibility to make better analogs.

Compound: CC(C)C[C@H](NC(=O)[C@H](Cc1ccccc1)NC(=O)c1cnccn1)B(O)O [Bortezomib, reference compound]
- ALBNEW (Albumin) [1]: 2.50 ± 0.10
- ALPNEW (Alkaline Phosphatase) [1]: 49 ± 5.29
- ALTNEW (Alanine Aminotransferase) [1]: 26.33 ± 2.51
- AMYL (Amylase) [1]: 473 ± 57.86
- ASTNEW (Aspartate aminotransferase) [1]: 53 ± 18.52
- BA(Basophils) [1]: 0.07 ± 0.06
- BUNNEW (Blood Urea Nitrogen) [1]: 22.66 ± 5.13
- CA (Calcium) [1]: 8.83 ± 0.60
- CHOL (Cholesterol) [1]: 69 ± 7.93
- CK_NEW (Creatinine Kinase) [1]: 93.66 ± 3.52
- CREAT (Creatinine) [1]: 0.33 ± 0.05
- EO (Eosinophils) [1]: 0.64 ± 0.48
- GGTNEW (Gamma-Glutamyl Transferase) [1]: 5.00 ± 0.67
- GLU (Glucose) [1]: 128 ± 20.29
- HCT(Hematocrit) [1]: 42.36 ± 4.15
- HDLNEW (High Density Lipoprotein) [1]: 28.33 ± 4.61
- Hb (Hemoglobin) [1]: 11.3 ± 0.70
- LDH (lactate Dehydrogenase) [1]: 245.33 ± 96
- LY(Lymphocytes) [1]: 2.12 ± 1.83
- MCHC (mean corpuscular hemoglobin concentration) [1]: 26.73 ± 1.16
- MCV (Mean corpuscular Volume) [1]: 55.66 ± 1.72
- MO(Monocytes) [1]: 0.20 ± 0.13
- MPV (Mean Platelet Volume) [1]: 5.40 ± 0.10
- NE(Neutrophils) [1]: 24.06 ± 15.07
- PLT (Platelet) [1]: 1346 ± 87.5
- RDW (Red Blood Cell Distribution Width) [1]: 20.13 ± 0.61
- TBIL1 (Total bilirubin) [1]: 0.26 ± 0.05
- TPROT (Total protein) [1]: 4.40 ± 0.26
- TRIG (Triglycerides) [1]: 56.66 ± 15.88
- UA (Uric Acid) [1]: 2.73 ± 0.87
- WBC(White Blood Cells) [1]: 24.85 ± 23.94
- pIC50 (RPMI8226): 8.00
- pIC50 (SiHa): 6.00
- pIC50 (HaCaT): > 5.60
- pIC50 (HT3): > 5.60
- pIC50 (HOK-16B): 7.70
- pIC50 (CasKi): 7.30
- pIC50 (HeLa): 7.52
- pIC50 (OVCAR3): > 5.60
- apoptosis (Annexin-V) (MM and HeLa cells): trigger extensive apoptosis
- pIC50 (HeLa cells [2]): 7.66
- cells with cell-surface HSP90 (HeLa cells [3]): 12.8%
- chymotryptic activity of the 20S proteasome (Suc-LLVY-AMC) (purified 20S proteasomes): inhibits
- pIC50 (C33A): > 5.60
- pIC50 (FaDu): > 5.60
- pIC50 (SKOV3): > 5.60
- pIC50 (MM.1S): 8.30
- bioluminescence compared to vehicle alone, 4 hr after treatment (4UbFL reporter): 2 fold
- increase in bioluminescence, one day post-treatment (4UbFL reporter): 4 fold
- pIC50 (NCl-H929): 8.30
- pIC50 (ES-2): 7.70

Compound: CC(=O)N[C@@H](CCCCN)C(=O)N1C/C(=C\c2ccc(Cl)c(Cl)c2)C(=O)/C(=C/c2ccc(Cl)c(Cl)c2)C1.Cl [RA195Ac]
- active caspase-3 (NCI-H929 cells): caused an increase in caspase-3 expression
- TNFα-induced NFκB activation [4]: inhibited TNFα-induced NFκB activation
- active caspase-3 (U266 cells): caused an increase in caspase-3 expression
- proteasome inhibition by 4UbFL stabilization (relative potency) [5]: more potent than the parent molecule RA195

Compound: Cl.N[C@@H](Cc1ccccc1)C(=O)N1C/C(=C\c2ccc([N+](=O)[O-])cc2)C(=O)/C(=C/c2ccc([N+](=O)[O-])cc2)C1 [RA183]
- active caspase-3 (NCI-H929 cells): caused an increase in caspase-3 expression
- active caspase-3 (U266 cells): caused an increase in caspase-3 expression
- chymotryptic activity of the 20S proteasome (Suc-LLVY-AMC) (purified 20S proteasomes): do not
- antiproliferative potency among analogs (cancer cells): higher potency
